Assay results published in US8933056B2, “Soft protease inhibitors and pro-soft forms thereof” (Trustees of Tufts College, priority 2005, dated 2015).
pIC50: −log10 of the molar value. Where two headings read alike, the source gives them in different places.

Columns and labels:
DP-IV = DP-IV (Sus scrofa (Pig), UniProt P22411); test: DPP IV inhibition: thioxamide v. oxoamide; type: biochemical, porcine; details: for Inactivation Index: IC50 pH 8.0 to pH 2.0
Description: The inhibitory activity of a compound may be tested easily. […] A compound is then screened for its ability to inhibit the protease activity of DP-IV with respect to a […] substrate. […] Briefly, a reaction containing 50 micromol sodium Hepes (pH 7.8), 10 micromol Ala-Pro-p-nitroanilide, 6 milliunits of DP-IV, and 2% (vol/vol) dimethylformamide in a total volume of 1.0 mL. The reaction was initiated by the addition of enzyme and reaction rates were measured at 25 C; formation of reaction product (para-nitroanilide) in the presence and absence of a test compound can be detected photometrically, e.g., at 410 nm.

Proteasome = Proteasome (Homo sapiens, UniProt P28074); test: X-boroLeu proteasome inhibition: thioxamide v. oxoamide; type: biochemical; details: IC50 ph 7.6 to ph 2.0
Sequence of Proteasome (P28074 60-263 limits assumed): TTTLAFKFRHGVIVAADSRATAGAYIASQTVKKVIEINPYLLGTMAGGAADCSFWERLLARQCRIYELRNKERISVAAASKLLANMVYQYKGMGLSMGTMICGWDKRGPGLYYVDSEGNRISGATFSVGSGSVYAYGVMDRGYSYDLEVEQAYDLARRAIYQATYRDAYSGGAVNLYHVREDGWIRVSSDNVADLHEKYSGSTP

DP8 = DP8 (Homo sapiens (Human), UniProt Q6V1X1); test: Selectivity for dipeptidyl peptidase isoforms, DP8; type: biochemical; details: for DP8 Ratio: IC50 pH 7.8 to pH 2
Sequence of DP8 (Q6V1X1 whole entry, species assumed, canonical isoform): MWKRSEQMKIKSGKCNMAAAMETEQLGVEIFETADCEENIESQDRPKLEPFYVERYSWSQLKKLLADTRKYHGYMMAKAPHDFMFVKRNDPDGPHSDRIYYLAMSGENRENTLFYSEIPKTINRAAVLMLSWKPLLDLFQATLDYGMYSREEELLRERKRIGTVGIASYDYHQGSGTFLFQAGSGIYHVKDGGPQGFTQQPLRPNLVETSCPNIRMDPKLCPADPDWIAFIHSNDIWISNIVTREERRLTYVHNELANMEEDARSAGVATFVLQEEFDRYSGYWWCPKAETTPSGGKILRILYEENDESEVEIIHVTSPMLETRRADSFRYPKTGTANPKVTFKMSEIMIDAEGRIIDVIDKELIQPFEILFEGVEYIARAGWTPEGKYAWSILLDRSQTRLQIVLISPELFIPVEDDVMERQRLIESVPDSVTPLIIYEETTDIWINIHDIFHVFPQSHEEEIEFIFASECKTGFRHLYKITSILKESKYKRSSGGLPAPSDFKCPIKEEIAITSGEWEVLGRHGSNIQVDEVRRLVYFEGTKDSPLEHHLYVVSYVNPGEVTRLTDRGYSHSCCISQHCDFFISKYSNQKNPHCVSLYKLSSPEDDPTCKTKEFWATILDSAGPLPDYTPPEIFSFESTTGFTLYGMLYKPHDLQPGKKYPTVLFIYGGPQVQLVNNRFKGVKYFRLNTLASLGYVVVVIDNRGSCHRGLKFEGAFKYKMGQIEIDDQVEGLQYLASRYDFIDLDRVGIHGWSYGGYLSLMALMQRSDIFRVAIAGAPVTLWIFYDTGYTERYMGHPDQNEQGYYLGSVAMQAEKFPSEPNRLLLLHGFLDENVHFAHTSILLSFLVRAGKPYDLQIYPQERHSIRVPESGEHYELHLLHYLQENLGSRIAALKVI
Description: (§1) The inhibitor solution is prepared by dissolving 3-5 mg of inhibitor in pH 2 solution (0.01 N HCl), such that the concentration of the solution is equal to 1 mg/10 mL. A 10 μL sample of this solution is then added to 990 μL of pH 8 buffer (0.1 M HEPES, 0.14 M NaCl), and the solution is allowed to stand at room temperature overnight.
(§2) The substrate solution is prepared by dissolving 2.0 mg of L-alanyl-L-proline-para-nitroanilide into 20 mL of pH 8 buffer.
(§3) 250 μL of enzyme solution is added to well #B1 to #H1, #A2 to #H2, and #A3 to #H3 of a 96 well plate, while well #A1 receives 250 μL of pH 8 buffer instead of enzyme solution.
(§4) A 1:10 dilution is then performed by adding inhibitor solution to #A5 and the solution is mixed well before transferring 10 μL of this solution from #A5 to #B5. The solution in #B5 is then mixed well before transferring 10 μL of this solution from #B5 to #C5. The solution in #C5 is then mixed well before transferring 10 μL of this solution from #C5 to #D5. The solution in #D5 is then mixed well before transferring 10 μL of this solution from #D5 to #E5. The solution in #E5 is then mixed well before transferring 10 μL of this solution from #E5 to #F5. The solution in #F5 is then mixed well before transferring 10 μL of this solution from #F5 to #G5. The solution in #G5 is then mixed well before transferring 10 μL of this solution from #G5 to #H5.
(§5) A 30 μL aliquot is then transferred from #H5 to #H3 for row H, and the contents are mixed well. The analogous procedure is repeated for rows G, F, E, D, C, B, and A sequentially. The plate is then shaken on a plate shaker for 5 min before allowing the plate to incubate at room temperature for an additional 5 min.
(§6) Once the plate has been allowed to incubate, 30 μL of substrate is added to each well except well #A1. […] The absorbance is then immediately read at a wavelength of 410 nm.
(§7) In this example, the assay is conducted for DPIV and DP8 or DP9. The ratio of IC50 values for each tested compound is calculated in order to determine the selectivity for the DPIV isoform. […]

DP9 = DP9 (Homo sapiens (Human), UniProt Q86TI2); test: Selectivity for dipeptidyl peptidase isoforms, DP9; type: biochemical; details: for DP9 Ratio: IC50 pH 7.8 to pH 2
Sequence of DP9 (Q86TI2 whole entry, species assumed, canonical isoform): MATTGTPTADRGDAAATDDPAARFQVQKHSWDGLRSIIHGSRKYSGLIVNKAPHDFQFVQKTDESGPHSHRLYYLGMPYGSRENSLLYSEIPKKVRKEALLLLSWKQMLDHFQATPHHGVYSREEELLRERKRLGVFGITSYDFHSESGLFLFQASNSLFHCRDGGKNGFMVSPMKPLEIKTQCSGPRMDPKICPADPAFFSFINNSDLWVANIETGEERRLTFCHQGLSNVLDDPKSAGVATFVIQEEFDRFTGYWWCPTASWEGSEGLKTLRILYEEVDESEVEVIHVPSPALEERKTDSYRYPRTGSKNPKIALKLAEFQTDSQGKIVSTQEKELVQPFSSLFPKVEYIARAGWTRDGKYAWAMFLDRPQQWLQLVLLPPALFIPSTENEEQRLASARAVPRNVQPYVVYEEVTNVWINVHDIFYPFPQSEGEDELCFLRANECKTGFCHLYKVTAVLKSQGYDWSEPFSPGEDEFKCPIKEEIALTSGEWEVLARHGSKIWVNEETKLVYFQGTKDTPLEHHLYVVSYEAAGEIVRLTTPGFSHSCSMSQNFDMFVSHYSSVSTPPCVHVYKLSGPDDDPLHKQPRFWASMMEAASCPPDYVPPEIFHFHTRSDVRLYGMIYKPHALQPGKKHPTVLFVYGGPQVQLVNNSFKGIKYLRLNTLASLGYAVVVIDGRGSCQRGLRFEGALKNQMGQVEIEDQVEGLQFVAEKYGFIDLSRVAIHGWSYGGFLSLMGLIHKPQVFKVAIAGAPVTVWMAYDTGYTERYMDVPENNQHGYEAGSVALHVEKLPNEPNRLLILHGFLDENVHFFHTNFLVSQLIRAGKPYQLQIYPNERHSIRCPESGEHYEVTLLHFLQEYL
Description: as §1, §2, §3, §4, §5, §6, §7

DPPIV = DPPIV (Homo sapiens (Human), UniProt P27487); test: DPIV inhibition assay (Examples 2 and 3); type: biochemical
Sequence of DPPIV (P27487 whole entry, species assumed): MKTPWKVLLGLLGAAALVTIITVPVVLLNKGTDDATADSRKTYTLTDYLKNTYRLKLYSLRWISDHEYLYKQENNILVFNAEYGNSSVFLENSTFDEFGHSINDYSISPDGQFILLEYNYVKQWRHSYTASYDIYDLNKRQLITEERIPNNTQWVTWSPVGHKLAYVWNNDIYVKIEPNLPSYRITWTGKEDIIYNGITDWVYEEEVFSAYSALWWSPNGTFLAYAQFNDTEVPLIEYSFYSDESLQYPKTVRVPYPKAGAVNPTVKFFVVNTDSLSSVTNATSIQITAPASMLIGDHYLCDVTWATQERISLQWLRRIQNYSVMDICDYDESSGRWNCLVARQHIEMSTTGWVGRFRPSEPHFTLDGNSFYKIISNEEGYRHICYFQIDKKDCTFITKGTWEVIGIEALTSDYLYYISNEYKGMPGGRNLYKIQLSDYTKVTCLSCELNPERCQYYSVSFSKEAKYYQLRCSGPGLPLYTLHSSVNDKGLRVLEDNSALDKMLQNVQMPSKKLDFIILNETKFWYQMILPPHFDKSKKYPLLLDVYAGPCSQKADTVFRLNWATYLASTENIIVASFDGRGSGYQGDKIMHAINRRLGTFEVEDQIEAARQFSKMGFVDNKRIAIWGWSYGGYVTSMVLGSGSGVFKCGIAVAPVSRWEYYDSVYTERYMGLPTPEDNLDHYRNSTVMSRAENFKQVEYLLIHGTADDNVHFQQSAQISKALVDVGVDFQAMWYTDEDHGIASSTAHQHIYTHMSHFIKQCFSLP
Description: as §1, §2, §3, §4, §5, §6, §7

[1] = pH 2.0, read-out: IC50 (pH 2.0)
[2] = pH 8.0, read-out: IC50 (pH 8.0)
[3] = pH 7.8, read-out: IC50s DP8 pH 7.8
[4] = pH 7.8, read-out: IC50s DP9 pH 7.8
[5] = pH 2, read-out: IC50s DPPIV pH 2

Sequence of DP-IV (P22411 whole entry): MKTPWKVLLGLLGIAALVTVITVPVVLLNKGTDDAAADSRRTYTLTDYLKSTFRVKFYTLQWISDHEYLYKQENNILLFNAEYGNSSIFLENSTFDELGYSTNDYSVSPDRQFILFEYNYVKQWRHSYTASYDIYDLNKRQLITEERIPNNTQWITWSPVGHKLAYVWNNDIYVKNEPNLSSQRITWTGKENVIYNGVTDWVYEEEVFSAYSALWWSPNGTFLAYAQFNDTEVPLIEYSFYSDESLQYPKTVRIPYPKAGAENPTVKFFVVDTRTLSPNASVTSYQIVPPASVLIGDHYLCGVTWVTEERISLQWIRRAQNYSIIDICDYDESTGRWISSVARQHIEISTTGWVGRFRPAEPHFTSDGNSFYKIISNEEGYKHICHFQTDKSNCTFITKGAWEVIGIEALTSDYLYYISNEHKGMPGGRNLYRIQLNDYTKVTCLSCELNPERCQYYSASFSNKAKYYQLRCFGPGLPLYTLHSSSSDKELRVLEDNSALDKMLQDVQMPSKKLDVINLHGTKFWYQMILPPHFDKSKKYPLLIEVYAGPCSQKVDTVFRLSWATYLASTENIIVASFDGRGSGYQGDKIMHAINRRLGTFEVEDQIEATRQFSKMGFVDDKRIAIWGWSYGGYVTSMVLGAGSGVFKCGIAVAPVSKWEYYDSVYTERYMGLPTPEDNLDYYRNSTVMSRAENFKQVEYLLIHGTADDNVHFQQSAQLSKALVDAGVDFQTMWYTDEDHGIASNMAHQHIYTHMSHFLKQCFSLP

Compound | Inactivation Index (DP-IV) | pIC50 (DP-IV; [1]) | pIC50 (DP-IV; [2]) | Inactivation Index (Proteasome) | other results
C[C@H](NC(=O)[C@H](C)N)B(O)O [Ala-boroAla, reference compound] | 7.0 | 7.20 | 6.36 | – | –
OB(O)[C@@H]1CCCN1C(=S)CNCc1ccccc1 [N-(Benzyl)-Gly-boroPro Thioxamide] | 7.1 | 7.62 | 6.77 | – | –
N[C@H](C(=S)N1CCC[C@H]1B(O)O)C1CCCCC1 [Chg-boroPro Thioxamide] | 2,300 | 8.40 | 5.05 | – | –
CC(C)C[C@H](NC(=O)CNC(=S)c1cnccn1)B(O)O [N-(Pyrazine-2-carbothio)-Gly-boroLeu] | – | – | – | 4.5 | –
CC(C)C[C@H](NC(=S)[C@@H](N)CC(=O)O)B(O)O [Asp-boroLeu Thioxamide] | – | – | – | 2.2 | –
N[C@@H](Cc1c[nH]c2ccccc12)C(=S)N1CCC[C@H]1B(O)O [Trp-boroPro Thioxamide] | 440 | 8.80 | 6.15 | – | –
OB(O)[C@@H]1CCCN1C(=S)[C@@H]1CCCN1 [Pro-boroPro Thioxamide] | 1,100 | 8.19 | 5.15 | – | DP8 Ratio (DP8): 720; Ratio DPP8 to DPIV (pH 2) (DP8; pH 2): 3.2; pIC50 (DP8; pH 2, read-out: IC50s DP8 pH 2): 8.60; pIC50 (DP8; [3]): 5.74; DP9 Ratio (DP9): 180; Ratio DP9 To DPIV (pH 2) (DP9; pH 2): 2.5; pIC50 (DP9; pH 2, read-out: IC50s DP9 pH 2): 8.72; pIC50 (DP9; [4]): 6.47; pIC50 (DPPIV; [5]): 9.12
CC(C)C[C@H](NC(=S)CN)B(O)O [Gly-boroLeu Thioxamide] | – | – | – | 20 | –
CC(C)C[C@H](NC(=S)CNC(=O)c1cnccn1)B(O)O [N-(Pyrazine-2-carbonyl)-Gly-boroLeu Thioxamide] | – | – | – | 3.8 | –
CC(C)C[C@H](NC(=S)CNC(=S)c1cnccn1)B(O)O [Pyz-Gly-boroLeu Perthioxamide] | – | – | – | 620 | –
O=C(CNC12CC3CC(CC(O)(C3)C1)C2)N1CCC[C@H]1B(O)O [NVP-LAF237 analogue, reference compound] | 1.7 | 7.38 | 7.14 | – | –
NCC(=O)N1CCC[C@H]1B(O)O [Gly-boroPro, reference compound] | 7,000 | 9.00 | 5.15 | – | –
CC(C)C[C@H](NC(=O)[C@@H](N)Cc1ccccc1)B(O)O [Phe-boroLeu (free Velcade), Phe-boroLeu, reference compound] | – | – | – | 7.5 | –
OB(O)[C@@H]1CCCN1C(=S)CNC12CC3CC(CC(O)(C3)C1)C2 [NVP-LAF237 analogue Thioxamide] | 250 | 6.80 | 4.40 | – | –
CC(C)C[C@H](NC(=O)CN)B(O)O [Gly-boroLeu, reference compound] | – | – | – | 11 | –
Chg-boroPro [reference compound] | 380 | 9.00 | 6.42 | – | –

Compound | Inactivation Index (DP-IV) | pIC50 (DP-IV; [1]) | pIC50 (DP-IV; [2]) | Inactivation Index (Proteasome) | other results
O=C([C@@H]1CCCN1)N1CCC[C@H]1B(O)O [Pro-boroPro, reference compound] | 21,000 | 8.96 | 4.64 | – | –
N[C@@H](CCCC(=O)O)C(=O)N1CCC[C@H]1B(O)O [Aad-boroPro, reference compound] | 1,600 | 8.35 | 5.13 | – | –
N[C@@H](Cc1c[nH]c2ccccc12)C(=O)N1CCC[C@H]1B(O)O [Trp-boroPro, reference compound] | 1500 | 8.70 | 5.52 | – | –
CC(C)C[C@H](NC(=S)[C@@H](N)Cc1ccccc1)B(O)O [Phe-boroLeu Thioxamide] | – | – | – | 20 | –
N[C@@H](CCC(=O)O)C(=O)N1CCC[C@H]1B(O)O [Glu-boroPro, reference compound] | 500 | 8.22 | 5.52 | – | –
Pro-boroAla (thioxam) | – | – | – | – | DP8 Ratio (DP8): 2.2; Ratio DPP8 to DPIV (pH 2) (DP8; pH 2): 1.8; pIC50 (DP8; pH 2, read-out: IC50s DP8 pH 2): 6.85; pIC50 (DP8; [3]): 6.51; DP9 Ratio (DP9): 1.3; Ratio DP9 To DPIV (pH 2) (DP9; pH 2): 1.1; pIC50 (DP9; pH 2, read-out: IC50s DP9 pH 2): 7.07; pIC50 (DP9; [4]): 6.96; DPPIV Ratio (DPPIV; IC50 pH 7.8 to pH 2): 4.1; pIC50 (DPPIV; [5]): 7.12; pIC50 (DPPIV; pH 7.8, read-out: IC50s DPPIV pH 7.8): 6.51
NCC(=S)N1CCC[C@H]1B(O)O [Gly-boroPro Thioxamide] | 630 | 8.52 | 5.72 | – | –
CC(C)[C@H](N)C(=S)N[C@@H](C)B(O)O [Val-boroAla Thioxamide] | 3.0 | 7.14 | 6.66 | – | –
O=C(CNCc1ccccc1)N1CCC[C@H]1B(O)O [N-(Benzyl)-Gly-boroPro, reference compound] | 7,300 | 8.02 | 4.16 | – | –
N[C@@H](CCCC(=O)O)C(=S)N1CCC[C@H]1B(O)O [Aad-boroPro Thioxamide] | 12,000 | 8.80 | 4.72 | – | –
N=C(N)NCCC[C@H](N)C(=O)N1CCC[C@H]1B(O)O [Arg-boroPro, reference compound] | 3,900 | 8.74 | 5.15 | – | –
N=C(N)NCCC[C@H](N)C(=S)N1CCC[C@H]1B(O)O [Arg-boroPro Thioxamide] | – | 8.92 | – | – | IC50 (pH 8.0) (DP-IV; pH 8.0, result in words): No inhibition
CC(C)C[C@H](NC(=O)[C@H](C)N)B(O)O [Ala-boroLeu, reference compound] | – | – | – | 3.2 | –
N[C@@H](CC(=O)O)C(=S)N1CCC[C@H]1B(O)O [Asp-boroPro Thioxamide] | 1,700 | 7.77 | 4.55 | – | –
CC(C)C[C@H](NC(=S)[C@H](C)N)B(O)O [Ala-boroLeu Thioxamide] | – | – | – | 110 | –
C[C@H](NC(=S)[C@H](C)N)B(O)O [Ala-boroAla Thioxamide] | 1.2 | 5.19 | 5.11 | – | –
